# Data: paper PMC11191095, “QSAR Reveals Decreased Lipophilicity of Polar Residues Determines the Selectivity of Antimicrobial Peptide Activity” (ACS Omega, 2024)
# Where a SMILES comes first, the peptide text is derived from it.
# What was measured:
# S. aureus (MRSA) 1199B = test: microbe, parasite or virus in culture; assay type: cell-based, Staphylococcus aureus; settings: S. aureus (MRSA) 1199B (R); shown in µM
# Summary of the method: (§1)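 Peptides 128→2 μg/mL, 2-fold series; inoculum ~5 × 10^5 CFU/mL from overnight culture (OD600 0.01, mixed 1:1). MHB non-cation-adjusted for bacteria, RPMI 1640 + 2% glucose for fungi. 37 °C, 20 h, OD600. MIC50/MIC90 at 50%/90% inhibition; n ≥ 3.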
# C. auris TDG 1912 = test: microbe, parasite or virus in culture; assay type: cell-based, Candida auris
# Summary of the method: as §1
# C. albicans NCPF 3281 = test: microbe, parasite or virus in culture; assay type: cell-based
# Summary of the method: as §1
# C. glabrata NCPF 8018 = test: microbe, parasite or virus in culture; assay type: cell-based
# Summary of the method: as §1
# C. krusei NCPF 3876 = test: microbe, parasite or virus in culture; assay type: cell-based
# Summary of the method: as §1
# [1] = system: C. parapsilosis NCPF 3209; test: microbe, parasite or virus in culture; assay type: cell-based
# Summary of the method: as §1
# C. tropicalis NCPF 8760 = test: microbe, parasite or virus in culture; assay type: cell-based
# Summary of the method: as §1
# [2] = RP-HPLC ElutionTime as indicator of hydrophobicity; assay type: physicochemical; settings: indicator of overall hydrophobicity; semipreparative RP-HPLC, Waters SymmetryPrep C8, water/ACN gradient with 0.1% TFA, 8 mL/min, 25 °C, 254 nm
# Method: Crude peptides, made up to 10 mg/mL in 0.1% TFA (v/v) in ddH2O, were subjected to preparative RP-HPLC purification on an Agilent 1100 system, with elution in gradient. A gradient program at a flow rate of 8 mL/min and column temperature of 25 °C was used to achieve elution with solvent A (0.1% trifluoroacetic acid (TFA) in water (v/v)) and solvent B (0.1% TFA in 100% acetonitrile (ACN) (v/v)). The elution program was as follows: (1) At 0–73 min, 100% solvent A to 0% solvent B; (2) at 73–77 min, 40% solvent A to 60% solvent B; (3) at 77–93 min, 10% solvent A to 90% solvent B; (4) at 93–105 min, 100% solvent A to 0% solvent B. Data collected were the retention time of the major fraction for each peptide in minutes as RP-HPLC ElutionTime (ElutionTime). Absorbance was detected at 254 nm, and fractions were collected manually. The fractions collected were spun in a speed-vac to remove ACN and the contents lyophilized. After freeze-drying for 24 h the peptides were dissolved in 10% (v/v) acetic acid before being lyophilized for a second time and then stored at −20 °C.
# Molecular descriptors used in the QSAR analysis included: charge, sequence length, overall lipophilicity (L), lipophilicity contributed by the polar or nonpolar residues (LP and LN), summation of the side chain surface areas of the total peptide, polar or nonpolar residues (SCSA, SCSAP, and SCSAN), the molecular weight of the entire peptide, polar or nonpolar residues (Mw, MwP, and MwN), count of small lipophilic residues (CSL) or aromatic residues (CAR), the total number of hydrogen bond donor and acceptor centers (HBtot, HBdon, and HBacc), the total number of rotatable bonds (#RotBonds) and various amphipathicity descriptors (LP/L, LP/LN, L/LN, Q/L, Q/LN, SCSAP/SCSAN, MwP/MwN, Q/CSL, and Q/CAR) (Suppl. Table S1). Experimentally determined characteristics included ElutionTime as an indicator of overall peptide hydrophobicity and the CD structure of each peptide determined in POPG/POPE lipids representing Gram-negative membranes, POPG lipids for Gram-positive membranes, and SDS micelles for fungal membranes. AMPs with an α-helical structure were labeled 4, β-sheets were labeled 3, β-turns and mixed conformations were labeled 2, and disordered structures were labeled 1.
# [3] = system: eight Gram-negative, four Gram-positive bacteria, and six fungi; test: Antimicrobial screening against panel of 18 pathogens; assay type: cell-based; settings: 128 to 2 μg/mL, 37 °C, 20 h
# Method: Antimicrobial activity was evaluated against a panel of 18 pathogens consisting of eight Gram-negative strains (E. coli NCTC 12923, E. coli LEC001, Pseudomonas aeruginosa PAO1, P. aeruginosa NCTC 13437, Acinetobacter baumannii ATCC 17978, A. baumannii AYE, Klebsiella pneumoniae M6, K. pneumoniae NCTC 13368), four Gram-positive strains (Staphylococcus aureus ATCC 9144, S. aureus NCTC 13616, S. aureus USA300, S. aureus 1199B) and six fungi (Candida auris TDG 1912, C. albicans NCPF 8018, C. krusei NCPF 3876, C. tropicalis NCPF 8760, and C. parapsilosis NCPF 3209). Pathogens were grown in noncation adjusted Mueller Hinton broth (MHB, for bacteria) or Roswell Park Memorial Institute (RPMI 1640) + 2% glucose (for fungi) at 37 °C with 180 rpm shaking and maintained on solid media (tryptic soy agar for bacteria and Sabouraud dextrose agar for fungi). For an antibiogram, see Suppl.
# The 46 peptides were serially diluted (128 to 2 μg/mL) in media down polypropylene 96-well plates. […] Plates were incubated at 37 °C for 20 h, and the optical density was determined spectrophotometrically at 600 nm. Minimum inhibition concentrations (MICs) were determined from a minimum of three biological repeats and are reported in μg/mL as well as μM. […]
SMILES,"Modal MIC50 (C. albicans NCPF 3281; NCPF 3281, 20 h) [µM]","Modal MIC90 (C. albicans NCPF 3281; NCPF 3281, 20 h) [µM]","Modal MIC50 (C. glabrata NCPF 8018; NCPF 8018, 20 h) [µM]","Modal MIC90 (C. glabrata NCPF 8018; NCPF 8018, 20 h) [µM]","Modal MIC50 (C. krusei NCPF 3876; NCPF 3876, 20 h) [µM]","Modal MIC90 (C. krusei NCPF 3876; NCPF 3876, 20 h) [µM]","Modal MIC50 ([1]; NCPF 3209, 20 h) [µM]","Modal MIC90 ([1]; NCPF 3209, 20 h) [µM]","Modal MIC50 (C. tropicalis NCPF 8760; NCPF 8760, 20 h) [µM]","Modal MIC90 (C. tropicalis NCPF 8760; NCPF 8760, 20 h) [µM]",ElutionTime (RP-HPLC retention time of major fraction) [2] [min],antimicrobial activity in the screens [3],also measured
CC(C)[C@H](NC(=O)CNC(=O)[C@H](CCCNC(=N)N)NC(=O)[C@@H](N)CCCNC(=N)N)C(=O)N[C@@H](CS)C(=O)N[C@@H](CCCNC(=N)N)C(=O)N[C@@H](CS)C(=O)N[C@H](C(=O)N[C@@H](CS)C(=O)N[C@@H](CCCNC(=N)N)C(=O)N[C@@H](CCCNC(=N)N)C(N)=O)C(C)C [BTD11a] (H-RRGVCRCVCRR-NH2; N-terminus assumed),23.5,47,11.8,23.5,23.5,23.5,2.9,11.8,0.7,1.5,16,–,"Modal MIC (S. aureus (MRSA) 1199B): > 94 µM; Modal MIC50 (C. auris TDG 1912; C. auris TDG 1912, 50% growth inhibition, RPMI 1640 + 2% glucose, 37 °C, 20 h, OD600): 64 µg/mL; Modal MIC50 (C. auris TDG 1912; TDG 1912, 20 h): 47 µM; Modal MIC90 (C. auris TDG 1912; TDG 1912, 20 h): > 94 µM; Modal MIC50 (C. albicans NCPF 3281; C. albicans NCPF 3281, 50% growth inhibition, RPMI 1640 + 2% glucose, 37 °C, 20 h): 32 µg/mL; Modal MIC90 (C. albicans NCPF 3281; C. albicans NCPF 3281, 90% growth inhibition, RPMI 1640 + 2% glucose, 37 °C, 20 h): 64 µg/mL; Modal MIC50 (C. glabrata NCPF 8018; C. glabrata NCPF 8018, 50% growth inhibition, RPMI 1640 + 2% glucose, 37 °C, 20 h): 16 µg/mL; Modal MIC90 (C. glabrata NCPF 8018; C. glabrata NCPF 8018, 90% growth inhibition, RPMI 1640 + 2% glucose, 37 °C, 20 h): 32 µg/mL; Modal MIC50 (C. krusei NCPF 3876; C. krusei NCPF 3876, 50% growth inhibition, RPMI 1640 + 2% glucose, 37 °C, 20 h): 32 µg/mL; Modal MIC90 (C. krusei NCPF 3876; C. krusei NCPF 3876, 90% growth inhibition, RPMI 1640 + 2% glucose, 37 °C, 20 h): 32 µg/mL; Modal MIC50 ([1]; C. parapsilosis NCPF 3209, 50% growth inhibition, RPMI 1640 + 2% glucose, 37 °C, 20 h): 4 µg/mL; Modal MIC90 ([1]; C. parapsilosis NCPF 3209, 90% growth inhibition, RPMI 1640 + 2% glucose, 37 °C, 20 h): 16 µg/mL; Modal MIC50 (C. tropicalis NCPF 8760; C. tropicalis NCPF 8760, 50% growth inhibition, RPMI 1640 + 2% glucose, 37 °C, 20 h): 1 µg/mL; Modal MIC90 (C. tropicalis NCPF 8760; C. tropicalis NCPF 8760, 90% growth inhibition, RPMI 1640 + 2% glucose, 37 °C, 20 h): 2 µg/mL"
CC(C)[C@H](NC(=O)[C@H](CS)NC(=O)[C@@H](N)CCCNC(=N)N)C(=O)N[C@@H](CS)C(=O)N[C@H](C(=O)N[C@@H](CCCNC(=N)N)C(=O)NCC(=O)N[C@@H](Cc1ccccc1)C(=O)N[C@@H](CS)C(=O)O)[C@@H](C)O [ThetaDefA] (H-RCVCTRGFC-OH; N-terminus and C-terminus assumed),> 122.6,> 122.6,> 122.6,> 122.6,> 122.6,> 122.6,> 122.6,> 122.6,> 122.6,> 122.6,22,no activity,–
CC(C)[C@H](NC(=O)CNC(=O)[C@H](CCCNC(=N)N)NC(=O)[C@H](CCCNC(=N)N)NC(=O)[C@H](CS)NC(=O)[C@@H](NC(=O)[C@H](CS)NC(=O)[C@@H](N)CCCNC(=N)N)C(C)C)C(=O)N[C@@H](CS)C(=O)O [ThetaDefB] (H-RCVCRRGVC-OH; N-terminus and C-terminus assumed),> 116.4,> 116.4,> 116.4,> 116.4,> 116.4,> 116.4,> 116.4,> 116.4,> 116.4,> 116.4,20,no activity,–
